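Step 1: Grow cells in 96-well plates. Step 2: Expose to compound for 48 hours at 5 concentrations. Step 3: Interpolate endpoints linearly; if unreached, use highest concentration. GI50 marks 50% less growth.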 Calls of active or inactive are those of the source. No stated cut-off is given here; in the data, active = GI50 up to about 1.1 µM and inactive = higher.
Tests used:
Test in all cases: NCI anticancer screen, dose series, 48 h
[1] = tested on: SF-268
[2] = tested on: OVCAR-5
[3] = tested on: LXFL 529
[4] = tested on: COLO 205
[5] = tested on: SNB-75
[6] = tested on: M19-MEL
[7] = tested on: OVCAR-3
[8] = tested on: A498
[9] = tested on: HOP-18
[10] = tested on: RPMI-8226
[11] = tested on: SF-539
[12] = tested on: HCT-116
[13] = tested on: K562
[14] = tested on: KM12
[15] = tested on: EKVX
[16] = tested on: UACC-62
[17] = tested on: SK-MEL-5
[18] = tested on: M14
[19] = tested on: HOP-92
[20] = tested on: SNB-19
[21] = tested on: Malme-3M
[22] = tested on: OVCAR-4
[23] = tested on: SF-295
[24] = tested on: XF498
[25] = tested on: HCC 2998
[26] = tested on: LOX IMVI
[27] = tested on: SK-OV-3
[28] = tested on: CCRF-CEM
[29] = tested on: CAKI-1
[30] = tested on: U-251
[31] = tested on: RXF 631
[32] = tested on: SK-MEL-28
[33] = tested on: 786-0
[34] = tested on: IGROV-1
[35] = tested on: MOLT-4
[36] = tested on: HL-60
[37] = tested on: SNB-78
[38] = tested on: NCI-H522
[39] = tested on: HCT-15
[40] = tested on: KM-20L2
[41] = tested on: NCI-H23
[42] = tested on: A549
[43] = tested on: SN12C
[44] = tested on: NCI-H460
[45] = tested on: NCI-H226
[46] = tested on: UACC-257
[47] = tested on: HOP-62
[48] = tested on: TK-10
[49] = tested on: SK-MEL-2
[50] = tested on: SW-620
[51] = tested on: DLD-1
[52] = tested on: DMS-273
[53] = tested on: OVCAR-8
[54] = tested on: UO-31
[55] = tested on: ACHN
[56] = tested on: HT-29
[57] = tested on: RXF 393
[58] = tested on: MDA-MB-231
[59] = tested on: BT-549
[60] = tested on: Hs-578T
[61] = tested on: MCF7
[62] = tested on: DMS-114
[63] = tested on: MDA-N
[64] = tested on: MDA-MB-435
[65] = tested on: T47D
[66] = tested on: SR
[67] = tested on: NCI/ADR-RES
[68] = tested on: PC-3
[69] = tested on: DU-145

## CN(C)C(=S)/N=c1\ssc(=S)n1Cc1ccccn1
[1]
  GI50: 6 µM (inactive)
[2]
  GI50: > 100 µM (inactive)
[3]
  GI50: 3.9 µM (inactive)
[4]
  GI50: 2.75 µM (inactive)
[5]
  GI50: 4.48 µM (inactive)
[6]
  GI50: 2.36 µM (inactive)
[7]
  GI50: 2.52 µM (inactive)
[8]
  GI50: 4.84 µM (inactive)
[9]
  GI50: 9.38 µM (inactive)
[10]
  GI50: 2.31 µM (inactive)
[11]
  GI50: 4.49 µM (inactive)
[12]
  GI50: 2.87 µM (inactive)
[13]
  GI50: 0.748 µM (active)
[14]
  GI50: 1.14 µM (inactive)
[15]
  GI50: 3.89 µM (inactive)
[16]
  GI50: 2.41 µM (inactive)
[17]
  GI50: 3.52 µM (inactive)
[18]
  GI50: 2.55 µM (inactive)
[19]
  GI50: 4.12 µM (inactive)
[20]
  GI50: 6.55 µM (inactive)
[21]
  GI50: 2.49 µM (inactive)
[22]
  GI50: 14 µM (inactive)
[23]
  GI50: 3.8 µM (inactive)
[24]
  GI50: 8.95 µM (inactive)
[25]
  GI50: 4.92 µM (inactive)
[26]
  GI50: 5.06 µM (inactive)
[27]
  GI50: 4.67 µM (inactive)
[28]
  GI50: 10.7 µM (inactive)
[29]
  GI50: 6.93 µM (inactive)
[30]
  GI50: 3.89 µM (inactive)
[31]
  GI50: 3.7 µM (inactive)
[32]
  GI50: 4.65 µM (inactive)
[33]
  GI50: 4.24 µM (inactive)
[34]
  GI50: 7.29 µM (inactive)
[35]
  GI50: 3.11 µM (inactive)
[36]
  GI50: 3.19 µM (inactive)
[37]
  GI50: 30.2 µM (inactive)
[38]
  GI50: 0.859 µM (active)
[39]
  GI50: 2.01 µM
[40]
  GI50: 1.94 µM (inactive)
[41]
  GI50: 3.62 µM (inactive)
[42]
  GI50: 3.85 µM (inactive)
[43]
  GI50: 7.03 µM (inactive)
[44]
  GI50: 2.93 µM (inactive)
[45]
  GI50: 6.5 µM (inactive)
[46]
  GI50: 4.1 µM (inactive)
[47]
  GI50: 10.6 µM (inactive)
[48]
  GI50: 7.55 µM (inactive)
[49]
  GI50: 1.94 µM (inactive)
[50]
  GI50: 2.7 µM (inactive)
[51]
  GI50: 4.45 µM (inactive)
[52]
  GI50: 1.64 µM (inactive)
[53]
  GI50: 4.54 µM (inactive)
[54]
  GI50: 3.7 µM (inactive)
[55]
  GI50: 8.24 µM (inactive)
[56]
  GI50: 2.78 µM (inactive)
[57]
  GI50: 3.01 µM (inactive)

## CCCCC/C=C1\CCC(CN2CCOCC2)C1=O (stereo not given)
[58]
  GI50: 4.7 µM (inactive)
[1]
  GI50: 12.2 µM (inactive)
[59]
  GI50: 14.7 µM (inactive)
[2]
  GI50: 18.6 µM (inactive)
[3]
  GI50: 5.32 µM (inactive)
[4]
  GI50: 3.67 µM (inactive)
[5]
  GI50: 14.8 µM (inactive)
[6]
  GI50: 19 µM (inactive)
[7]
  GI50: 5.9 µM (inactive)
[8]
  GI50: 17.7 µM (inactive)
[60]
  GI50: 4.25 µM (inactive)
[9]
  GI50: 14.2 µM (inactive)
[10]
  GI50: 0.449 µM (active)
[11]
  GI50: 14.8 µM (inactive)
[12]
  GI50: 9.35 µM (inactive)
[13]
  GI50: 2.36 µM (inactive)
[14]
  GI50: 3.49 µM (inactive)
[15]
  GI50: 17.5 µM (inactive)
[16]
  GI50: 12.4 µM (inactive)
[61]
  GI50: 1.6 µM (inactive)
[17]
  GI50: 15.4 µM (inactive)
[62]
  GI50: 13.6 µM (inactive)
[18]
  GI50: 6.7 µM (inactive)
[19]
  GI50: 15.7 µM (inactive)
[63]
  GI50: 8.24 µM (inactive)
[64]
  GI50: 5.25 µM (inactive)
[20]
  GI50: 16.8 µM (inactive)
[21]
  GI50: 9.62 µM (inactive)
[22]
  GI50: 16.2 µM (inactive)
[23]
  GI50: 16.8 µM (inactive)
[24]
  GI50: 17.4 µM (inactive)
[25]
  GI50: 12.5 µM (inactive)
[26]
  GI50: 4.84 µM (inactive)
[27]
  GI50: 18.5 µM (inactive)
[65]
  GI50: 2.72 µM (inactive)
[28]
  GI50: 2.9 µM (inactive)
[29]
  GI50: 5.28 µM (inactive)
[30]
  GI50: 10.8 µM (inactive)
[31]
  GI50: 12.1 µM (inactive)
[32]
  GI50: 7.91 µM (inactive)
[33]
  GI50: 2.58 µM (inactive)
[34]
  GI50: 13.8 µM (inactive)
[35]
  GI50: 2.43 µM (inactive)
[36]
  GI50: 2.26 µM (inactive)
[37]
  GI50: 12.6 µM (inactive)
[38]
  GI50: 2.43 µM (inactive)
[39]
  GI50: 5.32 µM
[40]
  GI50: 13.8 µM (inactive)
[66]
  GI50: 3.52 µM (inactive)
[67]
  GI50: 3.94 µM (inactive)
[41]
  GI50: 11.2 µM (inactive)
[42]
  GI50: 20.7 µM (inactive)
[43]
  GI50: 15.2 µM (inactive)
[44]
  GI50: 22.1 µM (inactive)
[45]
  GI50: 16.9 µM (inactive)
[46]
  GI50: 9.79 µM (inactive)
[47]
  GI50: 23.1 µM (inactive)
[48]
  GI50: 7.59 µM (inactive)
[68]
  GI50: 16.9 µM (inactive)
[49]
  GI50: 13.7 µM (inactive)
[50]
  GI50: 3.2 µM (inactive)
[51]
  GI50: 5.94 µM (inactive)
[69]
  GI50: 14.6 µM (inactive)
[53]
  GI50: 7.26 µM (inactive)
[54]
  GI50: 12.4 µM (inactive)
[55]
  GI50: 15.5 µM (inactive)
[56]
  GI50: 10.9 µM (inactive)
[57]
  GI50: 5.66 µM (inactive)
